From publication PMC9860845, “Synthesis, DFT Studies, Molecular Docking and Biological Activity Evaluation of Thiazole-Sulfonamide Derivatives as Potent Alzheimer’s Inhibitors” (Molecules, 2023)
Like-named read-outs stand apart in the source and are kept apart here.

Columns and labels:
[1] = molecular target: acetylcholinesterase (AChE) (Homo sapiens, UniProt P22303); test: biochemical
[2] = molecular target: butyrylcholinesterase (BuChE) (Homo sapiens, UniProt P06276); test: biochemical
[3] = Ellman method, pH 7.7, 37 °C, triplicate, ± SEM, read-out: AchE IC50
[4] = Ellman method, pH 7.7, 37 °C, triplicate, ± SEM, read-out: BuChE IC50

Sequence of acetylcholinesterase (AChE) (P22303 32-614, species assumed): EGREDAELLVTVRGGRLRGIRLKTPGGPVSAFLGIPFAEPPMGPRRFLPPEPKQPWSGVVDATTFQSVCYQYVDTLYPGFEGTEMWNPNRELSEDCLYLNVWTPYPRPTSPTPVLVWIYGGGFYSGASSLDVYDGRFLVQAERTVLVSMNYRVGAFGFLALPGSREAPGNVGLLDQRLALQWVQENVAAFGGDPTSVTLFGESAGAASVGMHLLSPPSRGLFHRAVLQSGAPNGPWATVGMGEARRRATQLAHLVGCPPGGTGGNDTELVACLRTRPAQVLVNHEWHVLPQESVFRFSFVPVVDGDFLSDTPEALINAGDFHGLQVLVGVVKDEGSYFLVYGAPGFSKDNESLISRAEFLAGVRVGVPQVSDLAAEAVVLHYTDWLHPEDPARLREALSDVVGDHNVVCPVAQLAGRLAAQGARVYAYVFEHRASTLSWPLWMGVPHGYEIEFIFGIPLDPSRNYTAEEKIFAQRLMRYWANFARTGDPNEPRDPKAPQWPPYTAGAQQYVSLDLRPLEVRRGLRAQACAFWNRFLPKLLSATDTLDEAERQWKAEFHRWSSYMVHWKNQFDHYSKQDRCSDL
Sequence of butyrylcholinesterase (BuChE) (P06276 29-602): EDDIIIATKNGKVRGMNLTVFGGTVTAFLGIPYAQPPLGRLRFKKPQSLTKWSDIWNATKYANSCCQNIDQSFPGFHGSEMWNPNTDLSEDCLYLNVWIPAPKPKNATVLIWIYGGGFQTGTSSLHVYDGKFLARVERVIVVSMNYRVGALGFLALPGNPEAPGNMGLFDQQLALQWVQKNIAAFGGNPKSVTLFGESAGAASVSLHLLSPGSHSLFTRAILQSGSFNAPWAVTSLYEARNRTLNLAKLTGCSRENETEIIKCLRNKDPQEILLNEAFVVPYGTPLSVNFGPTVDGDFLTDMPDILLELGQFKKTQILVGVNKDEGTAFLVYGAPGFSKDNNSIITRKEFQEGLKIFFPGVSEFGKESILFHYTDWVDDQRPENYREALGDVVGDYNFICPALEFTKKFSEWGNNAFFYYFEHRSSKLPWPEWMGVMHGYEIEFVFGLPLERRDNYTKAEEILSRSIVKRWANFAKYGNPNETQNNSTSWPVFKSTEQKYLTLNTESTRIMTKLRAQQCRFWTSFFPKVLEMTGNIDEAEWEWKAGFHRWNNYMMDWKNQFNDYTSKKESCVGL

O=[N+]([O-])c1cccc(-c2csc(NNS(=O)(=O)c3cc(Cl)cc(Cl)c3O)n2)c1 [analog 1, 3,5-Dichlro-2-hydroxy-N′-(4-(3-nitrophenyl)thiazol-2-yl)benzenesulfonohydrazide]
IC50 [1, 3]: 0.1 ± 0.05 µM
IC50 [2, 4]: 0.2 ± 0.05 µM

O=[N+]([O-])c1cccc(-c2csc(NNS(=O)(=O)c3ccc(Cl)cc3)n2)c1 [analog 2, 4-Chloro-N′-(4-(3-nitrophenyl)thiazol-2-yl)benzenesulfonohydrazide]
IC50 [1, 3]: 1.9 ± 0.1 µM
IC50 [2, 4]: 2.7 ± 0.1 µM

O=[N+]([O-])c1cccc(-c2csc(NNS(=O)(=O)c3cccc([N+](=O)[O-])c3)n2)c1 [analog 3, 3-Nitro-N′-(4-(3-nitrophenyl)thiazol-2-yl)benzenesulfonohydrazide]
IC50 [1]: 2.9 ± 0.1 µM
IC50 [2]: 3.8 ± 0.1 µM

Cc1ccc([N+](=O)[O-])cc1S(=O)(=O)NNc1nc(-c2cccc([N+](=O)[O-])c2)cs1 [analog 4, 2-Methyl-5-nitro-N′-(4-(3-nitrophenyl)thiazol-2-yl)benzenesulfonohydrazide]
IC50 [1]: 3.2 ± 0.1 µM
IC50 [2]: 6.1 ± 0.2 µM

O=[N+]([O-])c1ccc(S(=O)(=O)NNc2nc(-c3ccccc3)cs2)cc1 [analog 6, 4-Nitro-N′-(4-phenylthiazol-2-yl)benzenesulfonohydrazide]
IC50 [1, 3]: 11.4 ± 0.2 µM
IC50 [2, 4]: 14.3 ± 0.3 µM

O=S(=O)(NNc1nc(-c2ccc(Cl)cc2)cs1)c1ccc(Cl)cc1 [analog 7, 4-Chloro-N′-(4-(4-chlorophenyl)thiazol-2-yl)benzenesulfonohydrazide]
IC50 [1, 3]: 2.6 ± 0.1 µM
IC50 [2, 4]: 4.2 ± 0.1 µM

O=S(=O)(NNc1nc(-c2ccc(-c3ccccc3)cc2)cs1)c1ccc(Cl)cc1 [analog 8, N′-(4-([1,1′-biphenyl]-4-yl)thiazol-2-yl)-4-chlorobenzenesulfonohydrazide]
IC50 [1, 3]: 7.3 ± 0.1 µM
IC50 [2, 4]: 9.2 ± 0.1 µM

O=S(=O)(NNc1nc(-c2ccc(Cl)cc2)cs1)c1cc(Cl)cc(Cl)c1O [analog 9, 3,5-Dichloro-N′-(4-(4-chlorophenyl)thiazol-2-yl)-2-hydroxybenzenesulfonohydrazide]
IC50 [1, 3]: 0.4 ± 0.05 µM
IC50 [2, 4]: 0.7 ± 0.05 µM

Cc1ccc([N+](=O)[O-])cc1S(=O)(=O)NNc1nc(-c2ccc(Cl)c(Cl)c2)cs1 [analog 10, N′-(4-(3,4-dichlorophenyl)thiazol-2-yl)-2-methyl-5-nitrobenzenesulfonohydrazide]
IC50 [1, 3]: 0.2 ± 0.05 µM
IC50 [2, 4]: 0.6 ± 0.05 µM

Cc1ccc([N+](=O)[O-])cc1S(=O)(=O)NNc1nc(-c2ccc(Cl)cc2)cs1 [analog 11, N′-(4-(4-chlorophenyl)thiazol-2-yl)-2-methyl-5-nitrobenzenesulfonohydrazide]
IC50 [1, 3]: 3.1 ± 0.1 µM
IC50 [2, 4]: 4.4 ± 0.1 µM

O=[N+]([O-])c1cccc(S(=O)(=O)NNc2nc(-c3ccc(Cl)c(Cl)c3)cs2)c1 [analog 13, N′-(4-(3,4-dichlorophenyl)thiazol-2-yl)-3-nitrobenzenesulfonohydrazide]
IC50 [1, 3]: 0.3 ± 0.1 µM
IC50 [2, 4]: 1.4 ± 0.1 µM

O=[N+]([O-])c1cccc(S(=O)(=O)NNc2nc(-c3ccc(Cl)cc3)cs2)c1 [analog 14, N′-(4-(4-chlorophenyl)thiazol-2-yl)-3-nitrobenzenesulfonohydrazide]
IC50 [1, 3]: 1.2 ± 0.1 µM
IC50 [2, 4]: 2.7 ± 0.1 µM

O=S(=O)(NNc1nc(-c2ccc(Cl)c(Cl)c2)cs1)c1ccc(Cl)cc1 [analog 15, 4-Chloro-N′-(4-(3,4-dichlorophenyl)thiazol-2-yl)benzenesulfonohydrazide]
IC50 [1, 3]: 0.4 ± 0.1 µM
IC50 [2, 4]: 0.9 ± 0.1 µM

Cc1ccc([N+](=O)[O-])cc1S(=O)(=O)NNc1nc(-c2ccc(-c3ccccc3)cc2)cs1 [analog 16, N′-(4-([1,1′-biphenyl]-4-yl)thiazol-2-yl)-2-methyl-5-nitrobenzenesulfonohydrazide]
IC50 [1, 3]: 0.3 ± 0.05 µM
IC50 [2, 4]: 0.3 ± 0.05 µM

O=[N+]([O-])c1ccc([N+](=O)[O-])c(S(=O)(=O)NNc2nc(-c3ccc(-c4ccccc4)cc3)cs2)c1 [analog 19, N′-(4-([1,1′-biphenyl]-4-yl)thiazol-2-yl)-2,5-dinitrobenzenesulfonohydrazide]
IC50 [1]: 3.1 ± 0.1 µM
IC50 [2]: 4.3 ± 0.1 µM

O=[N+]([O-])c1ccc(S(=O)(=O)NNc2nc(-c3cccc([N+](=O)[O-])c3)cs2)cc1 [analog 20, 4-Nitro-N′-(4-(3-nitrophenyl)thiazol-2-yl)benzenesulfonohydrazide]
IC50 [1]: 3.5 ± 0.1 µM
IC50 [2]: 5.5 ± 0.1 µM

O=[N+]([O-])c1ccc(S(=O)(=O)NNc2nc(-c3ccc(-c4ccccc4)cc3)cs2)cc1 [analog 21, N′-(4-([1,1′-biphenyl]-4-yl)thiazol-2-yl)-4-nitrobenzenesulfonohydrazide]
IC50 [1, 3]: 3.2 ± 0.1 µM
IC50 [2, 4]: 5.4 ± 0.1 µM
